{"source": "paper PMC6892255", "about": "“Identification of a potent small-molecule inhibitor of bacterial DNA repair that potentiates quinolone antibiotic activity in methicillin-resistant Staphylococcus aureus^” (Bioorganic & Medicinal Chemistry, 2019)", "key": {"[1]": {"system": "methicillin-resistant S. aureus (MRSA, USA300 JE2)", "test": "MIC / growth inhibition assay (end-point OD600), single agent", "format": "cell-based, Staphylococcus aureus", "description": "(§1) Minimum inhibitory concentration (MIC) assays were used to evaluate the antimicrobial activity of compounds against Gram-negative (E. coli) and Gram-positive (S. aureus) bacteria. […] Gram-positive bacteria are more susceptible to small-molecule penetration, and compounds were therefore assessed for growth inhibition against the S. aureus SH1000 strain.\nMethicillin-resistant S. aureus (MRSA) is a multi-drug resistant bacterium responsible for a large number of nosocomial infections.[34] The emergence of community associated (CA)-MRSA capable of infection of healthy individuals highlights its significance and clinical relevance.[35]\n(§2) 2.1. Biological and biochemical methods\n(§3) Bacterial strains and culture conditions\n(§4) Strains utilized in the present study are detailed in Table S1. All strains used were cultivated on Mueller Hinton Agar (MHA) and grown to stationary-phase in Mueller Hinton Broth (MHB) at 37 °C for 16 h, with shaking at 180 r.p.m.\n(§5) Minimum inhibitory concentration (MIC) assays\n(§6) MIC assays were performed in 96 well plates and MICs were determined in accordance with the broth microdilution protocol.4 Strains grown to stationary-phase in MHB were adjusted to 5 x 10^5 colony-forming units (CFU)/mL in fresh MHB (100 µL/well) supplemented with DMSO to ensure a constant concentration of 0.5% (v/v) DMSO across all experiments. Where […]\n(§7) or H2O2 (200 μM). Test compounds were prepared as two-fold serial dilutions. Cells were […]\n(§8) as the lowest concentration with no visible bacterial growth, and the optical density at 600 nm (OD600) was recorded. OD600 measurements were background corrected against no-inocula control and normalized to DMSO control for dose-response analysis. The EC50 value mean and SEM were calculated from individual EC50 values from three biological replicates. […]"}, "E. coli K-12 BW25113": {"system": "E. coli K-12 BW25113", "test": "MIC / growth inhibition assay (end-point OD600), single agent", "format": "cell-based, Escherichia coli", "conditions": "Escherichia coli, BW25113, end-point OD600 after 18 h, read-out: EC50 E. coli (K12 BW25113) Compound only", "description": "as §1, §2, §3, §4, §5, §6, §7, §8"}, "[2]": {"system": "AddAB (StrepII-AddA and His6-AddB)", "test": "Recombinant AddAB pulldown with compound-functionalized Sepharose", "format": "binding", "conditions": "E. coli lysate co-expressing StrepII-AddA and His6-AddB, Western blot", "description": "A SOS reporter system was generated by transformation of JE2 cells with a plasmid containing GFP under control of the recA promoter. Activation of the SOS response in these cells results in expression of GFP which can be monitored by fluorescence intensity. […] This decrease is indicative of inhibition of the SOS response during cell death, and consistent with the proposed inhibition of AddAB-mediated DNA repair pathways. Finally, to provide additional evidence that inhibition of the bacterial DNA repair pathway by IMP-1700 (10) occurred through inhibition of AddAB, a target pulldown was conducted. IMP-1700 (10) was coupled with N-Boc-ethylenediamine to afford amide 19, followed by removal of the Boc group in 4 M HCl/dioxane and purification using strong cation exchange resin. The resulting free amine 20 was coupled to N-hydroxysuccinimide (NHS)-activated Sepharose resin at 4 °C overnight (Figure 2C), and the remaining NHS sites quenched in Tris buffer. SoluBL21 competent E. coli were transformed with pET28b^+ containing StrepII-tagged AddA and hexahistidine-tagged AddB, and expression induced overnight at 16 °C. Cells were lysed via sonication and the total lysate incubated with IMP-1700 (10)-functionalized or control Sepharose beads which had been treated with DMSO then Tris-quenched. Beads were washed three times with lysis buffer and bound protein eluted with SDS-PAGE sample buffer, followed by PAGE separation. […]\nagar (LA) supplemented with kanamycin (50 μg/mL). Liquid cultures were grown at 37 °C with shaking at 180 r.p.m until an OD600 of 0.5 was reached, at which point cultures were cooled to 16 °C. Protein expression was induced by addition of isopropyl β-D-thiogalactoside (1 mM), followed by incubation for 20 h at 16 °C with shaking. Cells were collected by centrifugation (4,000 × g, 5 min) and stored at -20 °C.\nCells were re-suspended in lysis buffer (50 mM Tris-HCl, 150 mM NaCl, pH 7.5) and lysed on ice by sonication (2 min, 5 s on-off cycle, 40% amplitude) using a Vibra-cell sonicator (Sonics). […]"}}, "note": "Entries after “also recorded” stand apart in the source; their conditions may differ.", "data": [{"smiles": "O=C(O)c1cn(C2CC2)c2cc(N3CCN(C(=S)Nc4ccc(C(F)(F)F)cc4)CC3)c(F)cc2c1=O", "note": "[Compound 10]", "values": [{"measurement": "EC50", "setting": "[1]; Staphylococcus aureus, 18 h, read-out: EC50 S. aureus (USA300 JE2) Compound only, single agent, end-point OD600 after 18 h", "value": "3800 ± 500", "unit": "nM"}, {"measurement": "fold less potent against JE2 compared to SH1000", "setting": "[1]; ratio of single-agent EC50 values", "value": "> 20", "unit": "fold"}, {"measurement": "EC50", "setting": "E. coli K-12 BW25113", "value": "500 ± 50", "unit": "nM"}, {"measurement": "Pulldown of AddA and AddB by compound-functionalized Sepharose", "setting": "[2]", "value": "allows co-isolation of the complex"}, {"measurement": "Pulldown of AddA and AddB by compound-functionalized Sepharose", "setting": "[2]; listed as IMP-1700", "value": "both AddA and AddB subunits were pulled down; also recorded: successfully pulled down"}]}]}
